# Measurements: patent publication US20040097577A1 (priority 2001, published 2004)
# What was measured:
# [1] = tested on: patients in the age ranging from 6 to 14 years; assay: pilot study, effect of melatonin on sleep latency (sleep logs, CGI), melatonin versus placebo; type: in vivo, human
# Description: In a pilot study, nine patients in the age ranging from 6 to 14 years were run through a protocol to determine feasibility. A sample of four sleep logs, illustrating response at each of the protocol was determined. […] Patients tolerated the protocol, and parents were able to reliably complete the sleep logs. Some parents had to be trained to do so over several visits. Parents whose children fell asleep extremely late, could not tolerate staying up to find out when they actually fell asleep, and had to be excluded.
# children = conditions: cited from earlier work
# [2] = tested on: children, most of whom were neurologically multiply disabled; conditions: 2 to 10 mg of oral melatonin at bedtime; cited from earlier work
compound,measurement,setting,value
"COc1ccc2[nH]cc(CCNC(C)=O)c2c1 [melatonin, N-acetyl-5-methoxytryptamine]",CGI data,[1]; melatonin versus placebo,not significant
same,difference in response between the melatonin and placebo,"[1]; nine patients, sleep logs, with sleep hygiene",significant difference in response (p=0.03)
same,adverse effects on long-term use,children; children who received melatonin for several years,without adverse effects
same,average onset of sleep after melatonin administration,"children; children, 2.5 to 7.5 mg PO once daily before expected bedtime",≤ 1 h
same,adverse side-effects,[2],no adverse side-effects
same,"health, behavioural and social benefits",[2],significant
